Tests used:
myometrial strips [1] = assay: Isometric tension recording, spontaneous contractions of myometrial strips; assay type: cell-based, human; conditions: 2 g tension, organ bath; dose-dependent
Protocol: FIG. 9 Diagrammatic representations showing that spontaneous contractions in myometrial strips are inhibited by cystamine (n=4), cysteamine (n=3) and MDC (n=2) in a dose-dependent manner. Control strips are shown with unbroken line (n=2). Tissue is used 24 hours following elective caesarean section and contractions are allowed to spontaneously initiate under 2 g tension and in a temperature controlled and oxygenated organ bath.
(§1) Longitudinal myometrial strips were mounted in an organ bath and contractile activity recorded as a measure of tensile force as previously described (Chanrachakul, Broughton-Pipkin et al., Am J Obstet Gynecol 192(2): 458-63, 2005). Myometrial contractions were initially stimulated by addition of oxytocin, bradykinin or phenylephrine (Sigma-Aldrich; 10^−10 mol/L, 10^−8 mol/L, 10^−8 mol/L respectively). Once rhythmic contractions had been achieved cumulative additions of cystamine (Sigma-Aldrich; 10^−8 to 10^−2 mol/L), mono-dansylcadaverine (MDC) (Sigma-Aldrich; 10^−8 to 10^−4 mol/L), cysteamine (Sigma-Aldrich; 10^−9 to 10^−2 mol/L), putrescine (Sigma-Aldrich; 10^−8 to 10^−4 mol/L) were added at 25 minute intervals. Contractile activity was determine by activity integral measured from 20 minutes time periods for each drug addition and analysed along with time-matched control myometrial strips under the same conditions but with vehicle additions (physiological salt solution).

human myometrial tissue = assay: Isometric tension recording, oxytocin-induced contractions of myometrial strips; assay type: cell-based; conditions: for EC50: Homo sapiens, inhibition of contractions stimulated with 10^−10M oxytocin, pooled experiments, cumulative additions, tissue 24 hours after elective caesarean; for effect on oxytocin-induced contractions: dose-dependent, 10^−10M oxytocin; for oxytocin-induced contractions after removal of the inhibitor by washing: washing with physiological salt solution, re-stimulation with oxytocin
Description: as §1

myometrial strips [2] = assay: Isometric tension recording, bradykinin-induced contractions of myometrial strips; assay type: cell-based, human; conditions: bradykinin 10^−8M; compared to control strips
Description: as §1

myometrial strips [3] = assay: Isometric tension recording, phenylephrine-induced contractions of myometrial strips; assay type: cell-based, human; conditions: phenylephrine 10^−8M; compared to control strips
Description: as §1

[4] = system: Myometrial smooth muscle cells; assay: Calcium mobilisation assay, oxytocin stimulated; assay type: cell-based, human; conditions: for effect on maximal calcium mobilisation: incubation with 10^−6M inhibitor, oxytocin stimulated; for Emax, maximal calcium mobilisation on oxytocin stimulation: pre-incubation for 10 minutes with 10^−6M inhibitor, FlexStation fluorescence
Protocol: Myometrial smooth muscle cells were grown in DMEM (Dulbecco's Modified Eagle Medium; Sigma-Aldrich) supplemented with 10% fetal calf serum, L-glutamine and 0.2% pen/strep at 37° C. 5% CO2, following dissociation in 2 mg/ml collagenase (Sigma-Aldrich). Once confluent cells were plated on black-walled flat-bottomed sterile 96-well plates (Costar) at a concentration of 10^5 cells/ml and in the same media makeup and again grown to confluence. Once confluent, cells were incubated in 100 μl media/well containing 2.5 mM probenecid (Sigma-Aldrich), 2.3 μM Fluo-4 (invitrogen) and 0.023% pluronic acid (Invitrogen) for one hour in the dark at 37° C. 5% CO2. Cells were then washed twice with phosphate buffered saline and finally incubated in 100 μl/well PSS (Chanrachakul, Broughton-Pipkin et al., Am J Obstet Gynecol 192(2): 458-63, 2005) containing 2.5 mM probenecid with or without 10^−6 mol/L cystamine, MDC or cysteamine for 10 minutes. Fluorescent readout was then recorded on FlexStation ([…]) over a 200 second period with oxytocin addition at 15 seconds (10^−11 to 10^−5 mol/L) and ionomycin, to measure maximal potential response, at 150 seconds (10^−6 mol/L; Sigma-Aldrich).

| Compound | effect on spontaneous contractions (myometrial strips [1]) | EC50 (human myometrial tissue) | effect on oxytocin-induced contractions (human myometrial tissue) | oxytocin-induced contractions after removal of the inhibitor by washing (human myometrial tissue) | effect on bradykinin induced contractions (myometrial strips [2]) | effect on phenylephrine induced contractions (myometrial strips [3]) | effect on maximal calcium mobilisation [4] | Emax, maximal calcium mobilisation on oxytocin stimulation [4] | contractility, % of untreated control myometrium (human myometrial tissue; MDC 10^−4M, contractions stimulated with 10^−10M oxytocin) |
| --- | --- | --- | --- | --- | --- | --- | --- | --- | --- |
| NCCSSCCN [cystamine] | inhibited | 1310 µM | inhibited | return to control levels | inhibited in a dose dependent manner | inhibited in a dose dependent manner | significantly reduced | 87.67 | – |
| CN(C)c1cccc2c(S(=O)(=O)NCCCCCN)cccc12 [MDC, Monodansylcadaverine] | inhibited | 22 µM | inhibited | return to control levels | inhibited in a dose dependent manner | inhibited in a dose dependent manner | significantly reduced | 81.45 | 17.8%±6.2 |
| NCCCCN [putrescine] | – | 56.6 µM | inhibited | – | – | – | – | – | – |
| NCCS [cysteamine] | inhibited | 1.63 µM | inhibited | began to return to control levels | – | – | significantly reduced | 98.95 | – |

— patent publication US20110237677A1, “Inhibitors” (The University of Nottingham, priority 2008, published 2011)
